Measurements reported in patent US8722697B2, “Pharmaceutical composition for treating hypertension and metabolic syndrome and use thereof” (Lunan Pharmaceutical Group Corporation, priority 2008, dated 2014).

Tests used:
calcium channel = conditions: background statement; cited from earlier work
[1] = system: spontaneously hypertensive rats; experiment: Tail arterial blood pressure of conscious spontaneously hypertensive rats; format: in vivo, rat; conditions: X ± S, n = 8
Description: (§1) Forty-eight spontaneously hypertensive rats (male, body weight (300±20) g, provided by Pharmacological Center for New Medicine of Shandong New Time Pharmaceutical Co., Ltd.) were fed for one week for acclimation, and then randomly divided into six groups with eight animals in each group.
(§2) Model control group: intragastric administration of same volume of physiological saline;
(§3) P group: 1 mg/(kg·d) of pioglitazone;
(§4) A+R group: 2 mg/(kg·d) of amlodipine+1 mg/(kg·d) of rosuvastatin calcium;
(§5) P+R group: 1 mg/(kg·d) of pioglitazone+1 mg/(kg·d) of rosuvastatin calcium;
(§6) Pharmaceutical composition of the present invention: 2 mg/(kg·d) of amlodipine+1 mg/(kg·d) of pioglitazone+1 mg/(kg·d) of rosuvastatin calcium;
(§7) Each group was given intragastric administration once every day for ten weeks. During the experiment, the diet, survival status and behaviors of the animals were recorded, and the animals were weighted once every day and the doses of administration were adjusted according to the body weights. Animals were sacrificed after ten weeks, and their hearts were taken out to determine the weights of left ventricles and calculate left ventricular indexes.
Blood pressures were measured five times between two and five hours after intragastric administration in the first week, the third week and the sixth week, respectively. The average value of the blood pressures was used as the blood pressure of the sample.

[2] = system: spontaneously hypertensive rats; experiment: Urinary microalbumin (bromophenol blue absorbance) in spontaneously hypertensive rats; format: in vivo, rat; conditions: intragastric once daily, high sugar and high fat diets, doses per group b107-b111; twelve-hour overnight urine; week not stated; X ± S, n = 8
Source text: as §2

[3] = system: patients suffered from metabolic syndrome; experiment: Clinical treatment of patients suffered from metabolic syndrome; format: in vivo, human; conditions: X ± S
Source text: Eighty-eight metabolic syndrome patients were selected from those received treatment in Linyi People's Hospital from May 2007 to May 2008, and randomly divided into a control group and an experimental group.
Control group: twenty-eight males and sixteen females, whose ages were between 62 and 71 and whose body mass indexes (BMI) were between 25.5 and 30;
Experimental group: twenty-four males and twenty females, whose ages were between 60 and 70 and whose body mass indexes (BMI) were between 24.5 and 31;
Before the treatment, all patients were subjected to blood lipids (including total cholesterol (TC), high-density lipid cholesterol (HDLC)) analysis, and detection of glycated hemoglobin (HbAlC), fasting blood glucose (FBG), fasting insulin (FINS) and fibrinogen (Fg).
Patients suffered from metabolic syndrome were selected according to the diagnostic standards for type-II diabetes mellitus and hypertension made by WHO in 1999 and referring to the diagnostic standards for metabolic syndrome made by US National Cholesterol Education Program Adult Treatment Panel (NCEP-ATP III) in 2000, while cases of […], heart failure (above grade II), diseases in liver, kidney and blood system and like were excluded.
Patients in the control group were administrated with 15 mg of pioglitazone once every day, and patients in the experimental group were administrated with 5 mg of amlodipine, 7.5 mg of pioglitazone and 5 mg of rosuvastatin calcium, i.e. the proportions as described in Example 1, once every day. After eight weeks of continuous treatment, all of the above parameters were re-determined, in which blood glucose was determined with hexokinase method, blood lipid was determined with esterase method, fibrinogen was determined with coagulation method and chromogenic substrate assay, HbAlC was determined with chromatography, and fasting insulin was determined with chemiluminescence immunoassay.
Statistical analysis: SPSS software was employed, and test of significance was performed by using a paired sample t test.

[4] = system: spontaneously hypertensive rats; experiment: Cardiac hypertrophy (left ventricular weight/body weight) in spontaneously hypertensive rats; format: in vivo, rat; conditions: after ten weeks of intragastric administration once daily; X ± S, n = 8
Description: as §1, §2, §3, §4, §5, §6, §7
After being sacrificed with 10% potassium chloride (2 mmol/L, 1 ml/rat), the rats were weighed. […] The left ventricular was weighed after the atria were removed, and a ratio of left ventricular weight to body weight was calculated.

[5] = system: spontaneously hypertensive rats; experiment: Carotid intima-media thickness in spontaneously hypertensive rats; format: in vivo, rat; conditions: carotid artery; intragastric once daily for six months, high sugar and high fat diets; X ± S, n = 8
Description: Forty-eight spontaneously hypertensive rats (male, body weight (300±20) g, provided by the Pharmacological Center for New Medicine of Shandong New Time Pharmaceutical Co., Ltd.) were fed for one week for acclimation, and then randomly divided into six groups with eight rats in each group.
as §2
P group: intragastric administration of 2 mg/(kg·d) of pioglitazone;
LA+R group: intragastric administration of 1 mg/(kg·d) of levo-amlodipine+1 mg/(kg·d) of rosuvastatin calcium;
P+R group: intragastric administration of 2 mg/(kg·d) of pioglitazone+1 mg/(kg·d) of rosuvastatin calcium;
LA group: intragastric administration of 1 mg/(kg·d) of levo-amlodipine;
Pharmaceutical composition of the present invention: intragastric administration of 1 mg/(kg·d) of levo-amlodipine+2 mg/(kg·d) of pioglitazone+1 mg/(kg·d) of rosuvastatin calcium;
Each group was given intragastric administration once every day and fed with high sugar and high fat diets for six months. During the experiment, the diet, survival status and behaviors of the animals were recorded, and the animals were weighed once every week and the doses of administration were adjusted according to the body weights.
After the animal was anesthetized and fixed, Even's blue (60 mg/kg) dye was injected via a femoral artery. […]

[6] = intragastric once daily, 2-5 h after administration

Row | Compound | Activity relative to the dextroisomer (calcium channel) | Activity relative to the racemate (calcium channel) | Blood pressure, before treatment ([1]; baseline before treatment) | Blood pressure after treatment, first week [1, 6] | Blood pressure after treatment, sixth week [1, 6] | Blood pressure after treatment, third week [1, 6] | Urinary microalbumin, Absorbance A (600 nm) [2] | FINS (fasting insulin), after treatment ([3]; after eight weeks, once every day, chemiluminescence immunoassay) | HbAlC (glycated hemoglobin), after treatment ([3]; after eight weeks, once every day, chromatography) | Fg (fibrinogen), after treatment ([3]; after eight weeks, once every day, coagulation method and chromogenic substrate assay) | FBG (fasting blood glucose), after treatment ([3]; after eight weeks, once every day, hexokinase method) | FINS (fasting insulin), before treatment ([3]; baseline before treatment, chemiluminescence immunoassay) | HbAlC (glycated hemoglobin), before treatment ([3]; baseline before treatment, chromatography) | Fg (fibrinogen), before treatment ([3]; baseline before treatment, coagulation method and chromogenic substrate assay) | FBG (fasting blood glucose), before treatment ([3]; baseline before treatment, hexokinase method) | Left ventricular weight [4] | Left ventricular weight/body weight (×10^−3) [4] | Maximum intima thickness [5] | Ratio of intima to media thickness [5]
1 | levo-amlodipine [A Group] | 1000 times | twice as high as that of the racemate |  |  |  |  |  |  |  |  |  |  |  |  |  |  |  |  | 
2 | CCc1ccc(CCOc2ccc(CC3SC(=O)NC3=O)cc2)nc1 (stereo not shown) [P group, pioglitazone] |  |  | 151 ± 7.6 mmHg | 157 ± 8.6 mmHg | 170 ± 8.8 mmHg | 162 ± 10.3 mmHg | 0.568 ± 0.125^• | 25.68 ± 5.34 mlU/L | 6.39 ± 0.56% | 392.6 ± 64.51 mg/dL | 6.63 ± 1.65 mmol/L | 32.4 ± 7.21 mlU/L | 6.89 ± 0.65% | 419.6 ± 89.62 mg/dL | 7.12 ± 2.06 mmol/L | 0.99 ± 0.10 g | 3.33 ± 0.19 ×10^−3 | 0.130 ± 0.026 mm | 2.246 ± 0.361
